Assay results: patent US20260262643A1, “HERBICIDAL BENZOXAZINES” (FMC CORPORATION, priority 2022, published 2026)

Columns and labels:
[1] = test system: ryegrass, Italian; assay: Test C postemergence; assay type: in vivo, Lolium multiflorum; details: 10 days, 0 to 100 scale (0 no effect, 100 complete control)
Method in brief: (§1)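 Seeds in loam–sand blend received preemergence directed soil spray of test chemicals in non-phytotoxic solvent with surfactant; postemergence treatment was applied at one- to two-leaf stage (2–10 cm). After 10 days in greenhouse, injury rated visually versus untreated controls, 0 (no effect) to 100 (complete control).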

[2] = test system: wheat; assay: Test C preemergence; assay type: in vivo, Triticum aestivum; details: for Wheat plant response rating: 500 g ai/ha, preemergence, 0 to 100 scale (0 no effect, 100 complete control)
Method in brief: as §1

[3] = test system: rice; assay: Test D flooded paddy test; assay type: in vivo, Oryza sativa; details: 250 g ai/ha, applied to paddy water, visual rating after 13 to 14 days, scale 0 to 100 (0 no effect, 100 complete control)
Method in brief: (§2)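 Plants at the 2-leaf stage were grown in pots flooded to 3 cm, and compound was applied directly into the paddy water, with depth kept throughout. After 13–14 days in a greenhouse, injury was rated visually against untreated controls on a 0–100 scale (100 = complete control); a dash means not tested.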

[4] = test system: corn; assay: Test C preemergence; assay type: in vivo, Zea mays; details: for Corn plant response rating: 500 g ai/ha, preemergence, 0 to 100 scale (0 no effect, 100 complete control)
Method in brief: as §1

[5] = test system: barnyardgrass; assay: Test C postemergence; assay type: in vivo, Echinochloa crusgalli; details: 10 days
Method in brief: as §1

[6] = test system: galium; assay: Test C postemergence; assay type: in vivo, Galium aparine; details: 10 days
Method in brief: as §1

[7] = test system: corn; assay: Test C postemergence; assay type: in vivo, Zea mays; details: 10 days; for Plant response rating, Corn: 0 to 100 scale (0 no effect, 100 complete control)
Method in brief: as §1

[8] = test system: soybean; assay: Test C postemergence; assay type: in vivo, Glycine max; details: 10 days, 0 to 100 scale (0 no effect, 100 complete control)
Method in brief: as §1

[9] = test system: ragweed; assay: Test C postemergence; assay type: in vivo, Ambrosia artemisiifolia; details: 10 days, 0 to 100 scale (0 no effect, 100 complete control)
Method in brief: as §1

[10] = test system: ragweed; assay: Test C preemergence; assay type: in vivo, Ambrosia artemisiifolia; details: for Ragweed plant response rating: 500 g ai/ha, preemergence, 0 to 100 scale (0 no effect, 100 complete control)
Method in brief: as §1

[11] = test system: ryegrass, Italian; assay: Test C preemergence; assay type: in vivo, Lolium multiflorum; details: for Ryegrass, Italian plant response rating: 500 g ai/ha, preemergence, 0 to 100 scale (0 no effect, 100 complete control)
Method in brief: as §1

[12] = test system: green foxtail; assay: Test C postemergence; assay type: in vivo, Setaria viridis; details: 10 days
Method in brief: as §1

[13] = test system: green foxtail; assay: Test C preemergence; assay type: in vivo, Setaria viridis; details: for Foxtail, Green plant response rating: 500 g ai/ha, preemergence, 0 to 100 scale (0 no effect, 100 complete control)
Method in brief: as §1

[14] = test system: horseweed; assay: Test C postemergence; assay type: in vivo, Erigeron canadensis; details: 500 g ai/ha, 10 days
Method in brief: as §1

[15] = test system: kochia; assay: Test C postemergence; assay type: in vivo, Bassia scoparia; details: 10 days, 0 to 100 scale (0 no effect, 100 complete control)
Method in brief: as §1

[16] = test system: oat, wild; assay: Test C postemergence; assay type: in vivo, Avena fatua; details: 10 days, 0 to 100 scale (0 no effect, 100 complete control)
Method in brief: as §1

[17] = test system: barnyardgrass; assay: Test C preemergence; assay type: in vivo, Echinochloa crusgalli; details: for Plant response rating, Barnyardgrass: Preemergence
Method in brief: as §1

[18] = test system: blackgrass; assay: Test C postemergence; assay type: in vivo, Alopecurus myosuroides; details: 10 days; for Plant response rating, Blackgrass: 0 to 100 scale (0 no effect, 100 complete control)
Method in brief: as §1

[19] = test system: barnyardgrass; assay: Test D flooded paddy test; assay type: in vivo, Echinochloa crus-galli; details: 250 g ai/ha, applied to paddy water, visual rating after 13 to 14 days, scale 0 to 100 (0 no effect, 100 complete control)
Method in brief: as §2

[20] = test system: wheat; assay: Test C postemergence; assay type: in vivo, Triticum aestivum; details: 10 days, 0 to 100 scale (0 no effect, 100 complete control)
Method in brief: as §1

[21] = test system: pigweed, palmer; assay: Test C preemergence; assay type: in vivo, Amaranthus palmeri; details: for Pigweed, Palmer plant response rating: 500 g ai/ha, preemergence, 0 to 100 scale (0 no effect, 100 complete control)
Method in brief: as §1

[22] = test system: soybean; assay: Test C preemergence; assay type: in vivo, Glycine max; details: for Soybean plant response rating: 500 g ai/ha, preemergence, 0 to 100 scale (0 no effect, 100 complete control)
Method in brief: as §1

[23] = test system: blackgrass; assay: Test C preemergence; assay type: in vivo, Alopecurus myosuroides; details: for Plant response rating, Blackgrass: Preemergence
Method in brief: as §1

[24] = test system: pigweed, palmer; assay: Test C postemergence; assay type: in vivo, Amaranthus palmeri; details: 10 days, 0 to 100 scale (0 no effect, 100 complete control)
Method in brief: as §1

[25] = test system: sedge, umbrella; assay: Test D flooded paddy test; assay type: in vivo, Cyperus difformis; details: 250 g ai/ha, applied to paddy water, visual rating after 13 to 14 days, scale 0 to 100 (0 no effect, 100 complete control)
Method in brief: as §2

[26] = test system: ducksalad; assay: Test D flooded paddy test; assay type: in vivo, Heteranthera limosa; details: 250 g ai/ha, applied to paddy water, visual rating after 13 to 14 days, scale 0 to 100 (0 no effect, 100 complete control)
Method in brief: as §2

[27] = test system: kochia; assay: Test C preemergence; assay type: in vivo, Bassia scoparia; details: for Kochia plant response rating: 500 g ai/ha, preemergence, 0 to 100 scale (0 no effect, 100 complete control)
Method in brief: as §1

[28] = test system: oat, wild; assay: Test C preemergence; assay type: in vivo, Avena fatua; details: 500 g ai/ha, preemergence; 0 to 100 scale (0 no effect, 100 complete control)
Method in brief: as §1

[29] = Preemergence, 125 g ai/ha, 0 to 100 scale, 0 no effect, 100 complete control
[30] = 500 g ai/ha, postemergence, 0 to 100 scale (0 no effect, 100 complete control)
[31] = Postemergence, 125 g ai/ha, 0 to 100 scale (0 no effect, 100 complete control)
[32] = 500 g ai/ha, preemergence, 0 to 100 scale (0 no effect, 100 complete control)
[33] = 125 g ai/ha, 0 to 100 scale, 0 no effect, 100 complete control
[34] = Postemergence, 500 g ai/ha, visual 0 to 100 scale (0 no effect, 100 complete control)
[35] = 500 g ai/ha, visual rating after 10 days, 0 to 100 scale (0 no effect, 100 complete control)

CC(=O)c1ncn(-c2ccc(C)c(C(=O)N3C[C@H](C)Oc4c(Cl)cccc43)c2)n1 [Compound 360]
60: Plant response rating, Corn [4, 29] | Plant response rating, Pigweed, Palmer ([24]; Postemergence, 125 g ai/ha)
70: Plant response rating, Ryegrass, Italian ([1]; Postemergence, 125 g ai/ha) | Corn plant response rating [4] | Plant response rating, Kochia ([15]; 500 g ai/ha, postemergence)
50: Plant response rating, Ragweed ([9]; Postemergence, 125 g ai/ha) | Plant response rating, Wheat ([20]; 500 g ai/ha, postemergence)
15: Plant response rating, Rice (Flood) [3]
90: Plant response rating, Barnyardgrass [5, 31] | Plant response rating, Corn ([7]; 500 g ai/ha, postemergence) | Plant response rating, Corn ([7]; Postemergence, 125 g ai/ha) | Ryegrass, Italian plant response rating [11] | Plant response rating, Foxtail, Green [12, 30] | Plant response rating, Foxtail, Green [12, 31] | Plant response rating, Oat, Wild ([16]; 500 g ai/ha, postemergence) | Plant response rating, Blackgrass ([18]; 500 g ai/ha, postemergence) | Pigweed, Palmer plant response rating [21] | Plant response rating, Pigweed, Palmer ([24]; 500 g ai/ha, postemergence) | Plant response rating, Sedge, Umbrella (Flood) [25]
40: Plant response rating, Wheat [2, 29]
30: Plant response rating, Horseweed ([14]; postemergence, 0 to 100 scale (0 no effect, 100 complete control)) | Plant response rating, Oat, Wild ([16]; Postemergence, 125 g ai/ha) | Plant response rating, Wheat ([20]; Postemergence, 125 g ai/ha) | Plant response rating, Pigweed, Palmer [21, 29]
20: Plant response rating, Kochia ([15]; Postemergence, 125 g ai/ha) | Plant response rating, Kochia [27, 29]
100: Plant response rating, Ryegrass, Italian ([1]; 500 g ai/ha, postemergence) | Plant response rating, Barnyardgrass [5, 30] | Plant response rating, Galium [6, 30] | Plant response rating, Galium [6, 31] | Plant response rating, Soybean ([8]; 500 g ai/ha, postemergence) | Plant response rating, Soybean ([8]; Postemergence, 125 g ai/ha) | Ragweed plant response rating [10] | Foxtail, Green plant response rating [13] | Plant response rating, Foxtail, Green [13, 29] | Barnyardgrass plant response rating [17, 32] | Plant response rating, Barnyardgrass [17, 33] | Soybean plant response rating [22] | Blackgrass plant response rating [23, 32] | Plant response rating, Ducksalad (Flood) [26]
45: Plant response rating, Barnyardgrass (Flood) [19]
80: Wheat plant response rating [2] | Plant response rating, Ragweed ([9]; 500 g ai/ha, postemergence) | Plant response rating, Ragweed [10, 29] | Plant response rating, Ryegrass, Italian [11, 29] | Plant response rating, Blackgrass ([18]; Postemergence, 125 g ai/ha) | Plant response rating, Soybean [22, 29] | Plant response rating, Blackgrass [23, 33] | Kochia plant response rating [27]

CC(C)c1ncn(-c2cc(O)c(O)c(C(=O)N3C[C@H](C)Oc4c(Cl)cccc43)c2)n1 [Compound 272, [(2S)-8-chloro-2-methyl-2,3-dihydro-1,4-benzoxazin-4-yl]-[2,3-dihydroxy-5-(3-isopropyl-1,2,4-triazol-1-yl)phenyl]methanone]
90: Pigweed, Palmer plant response rating [21]
0: Wheat plant response rating [2] | Plant response rating, Rice (Flood) [3] | Corn plant response rating [4] | Plant response rating, Barnyardgrass [5, 34] | Plant response rating, Galium [6, 34] | Ryegrass, Italian plant response rating [11] | Plant response rating, Foxtail, Green [12, 34] | Foxtail, Green plant response rating [13] | Plant response rating, Barnyardgrass [17, 35] | Plant response rating, Barnyardgrass (Flood) [19] | Soybean plant response rating [22] | Plant response rating, Blackgrass [23, 35] | Plant response rating, Sedge, Umbrella (Flood) [25] | Oat, Wild plant response rating [28] | Plant response rating, Ducksalad (Flood) [26] | Kochia plant response rating [27]
0%: Corn plant response rating (crop injury, 0 = no effect, 100 = complete kill) at 500 g/ha ([7]; Zea mays, post-emergence, 240 h, Postemergence, 500 g ai/ha, visual 0 to 100 scale (0 no effect, 100 complete control)) | pest or weed control at 500 g/ha ([18]; Alopecurus myosuroides, post-emergence, 240 h, Postemergence, 500 g ai/ha, visual 0 to 100 scale (0 no effect, 100 complete control), read-out: Plant response rating, Blackgrass)
30: Ragweed plant response rating [10]
10: Plant response rating, Horseweed ([14]; Postemergence, visual 0 to 100 scale (0 no effect, 100 complete control))
